Tests used:
wild oat = assay: Test B pre/postemergence wild oat; format: in vivo, Avena fatua
Summary of the method: (§1)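 Response is a visual 0-to-10 score relative to untreated plants, where 0 means no effect and 10 means complete control, taken twelve to sixteen days after application. Treatments went onto soil at planting and onto foliage of 1- to 4-leaf plants, using a surfactant-containing non-phytotoxic solvent.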

crabgrass = assay: Test B pre/postemergence crabgrass; format: in vivo, Digitaria sanguinalis
Summary of the method: as §1

purple nutsedge = assay: Test B pre/postemergence purple nutsedge; format: in vivo, Cyperus rotundus
Summary of the method: as §1

bamyardgrass = assay: Test B flood test barnyardgrass; format: in vivo, Echinochloa crus-galli
Summary of the method: (§2)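 Plants were grown to the 2-leaf stage before treatment with test chemical, then held in a greenhouse for twelve to sixteen days. Injury was visually rated against untreated controls on a 0–10 scale, where 0 is no effect and 10 is complete control.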

smallflower flatsedge = assay: Test B flood test smallflower flatsedge; format: in vivo, Cyperus difformis
Summary of the method: as §2

surinam grass = assay: Test B pre/postemergence surinam grass; format: in vivo, Brachiaria decumbens
Summary of the method: as §1

morningglory = assay: Test B pre/postemergence morningglory; format: in vivo, Ipomoea hederacea
Summary of the method: as §1

cocklebur = assay: Test B pre/postemergence cocklebur; format: in vivo, Xanthium strumarium
Summary of the method: as §1

sugar beet = assay: Test B pre/postemergence sugar beet; format: in vivo, Beta vulgaris
Summary of the method: as §1

corn = assay: Test B pre/postemergence corn; format: in vivo, Zea mays
Summary of the method: as §1

rice = assay: Test B flood test rice; format: in vivo, Oryza sativa
Summary of the method: as §2

duck salad = assay: Test B flood test duck salad; format: in vivo, Heteranthera limosa
Summary of the method: as §2

rape = assay: Test B pre/postemergence rape; format: in vivo, Brassica napus
Summary of the method: as §1

pigweed = assay: Test B pre/postemergence pigweed; format: in vivo, Amaranthus retroflexus
Summary of the method: as §1

giant foxtail = assay: Test B pre/postemergence giant foxtail; format: in vivo, Setaria faberii
Summary of the method: as §1

wheat = assay: Test B pre/postemergence wheat; format: in vivo, Triticum aestivum
Summary of the method: as §1

[1] = Preemergence, Rate 62 g/ha, scale 0 to 10 (0 no effect, 10 complete control)
[2] = Preemergence, Rate 125 g/ha, 0 is no effect, 10 is complete control
[3] = Preemergence, Rate 250 g/ha, scale 0 to 10, 0 is no effect, 10 is complete control
[4] = Preemergence, Rate 500 g/ha, scale 0 to 10 (0 no effect, 10 complete control)
[5] = Rate 250 g/ha, Postemergence, scale 0 to 10, 0 is no effect, 10 is complete control
[6] = Rate 500 g/ha, Postemergence, scale 0 to 10
[7] = Postemergence, Rate 125 g/ha, scale of 0 to 10 where 0 is no effect and 10 is complete control
[8] = Rate 62 g/ha, Postemergence, scale of 0 to 10 where 0 is no effect and 10 is complete control
[9] = Postemergence, Rate 1000 g/ha, scale 0 to 10 (0 no effect, 10 complete control)
[10] = Rate 250 g/ha, Postemergence (flood test), scale 0 to 10, 0 is no effect, 10 is complete control
[11] = Rate 500 g/ha, listed under Postemergence (flood test species), scale 0 to 10
[12] = Rate 2000 g/ha, Postemergence, scale 0 to 10

Cc1nsc(C)c1-n1c(=O)on(C(=O)N(c2ccc(F)cc2)C(C)C)c1=O [Compound 157]
Wild oats plant response rating (wild oat; [1]): 0
Wild oats plant response rating (0 to 10 scale) (wild oat; [2]): 0
Wild oats plant response rating (wild oat; [3]): 0
Wild oats plant response rating (wild oat; [4]): 0
Plant response rating, Wild oats (wild oat; [5]): 0
Wild oats plant response rating (wild oat; [6]): 0
Crabgrass plant response rating (crabgrass; [7]): 0
Crabgrass plant response rating (crabgrass; [1]): 0
Crabgrass plant response rating (0 to 10 scale) (crabgrass; [2]): 2
Crabgrass plant response rating (crabgrass; [3]): 4
Crabgrass plant response rating (crabgrass; [4]): 6
Crabgrass plant response rating (crabgrass; [8]): 0
Plant response rating, Crabgrass (crabgrass; [5]): 2
Crabgrass plant response rating (crabgrass; [6]): 7
Nutsedge plant response rating (purple nutsedge; [7]): 0
Nutsedge plant response rating (purple nutsedge; [1]): 0
Nutsedge plant response rating (0 to 10 scale) (purple nutsedge; [2]): 0
Nutsedge plant response rating (purple nutsedge; [3]): 0
Nutsedge plant response rating (purple nutsedge; [4]): 0
Nutsedge plant response rating (purple nutsedge; [8]): 0
Plant response rating, Nutsedge (purple nutsedge; [5]): 0
Nutsedge plant response rating (purple nutsedge; [6]): 0
Barnyardgrass plant response rating (bamyardgrass; [9]): 0
Plant response rating, Barnyardgrass (bamyardgrass; [10]): 0
Barnyardgrass plant response rating (bamyardgrass; [11]): 0
Barnyardgrass plant response rating (bamyardgrass; [12]): 0
S. Flatsedge plant response rating (smallflower flatsedge; [9]): 0
Plant response rating, S. Flatsedge (smallflower flatsedge; [10]): 0
S. Flatsedge plant response rating (smallflower flatsedge; [11]): 0
S. Flatsedge plant response rating (smallflower flatsedge; [12]): 0
B. signalgrass plant response rating (surinam grass; [7]): 0
B. signalgrass plant response rating (surinam grass; [1]): 0
B. signalgrass plant response rating (0 to 10 scale) (surinam grass; [2]): 0
B. signalgrass plant response rating (surinam grass; [3]): 0
B. signalgrass plant response rating (surinam grass; [4]): 0
B. signalgrass plant response rating (surinam grass; [8]): 0
Plant response rating, B. signalgrass (surinam grass; [5]): 0
B. signalgrass plant response rating (surinam grass; Rate 500 g/ha, Postemergence, scale 0 to 10, 0 no effect, 10 complete control): 0
Morningglory plant response rating (morningglory; [7]): 1
Morningglory plant response rating (morningglory; [1]): 0
Morningglory plant response rating (0 to 10 scale) (morningglory; [2]): 0
Morningglory plant response rating (morningglory; [3]): 0
Morningglory plant response rating (morningglory; [4]): 3
Morningglory plant response rating (morningglory; [8]): 0
Plant response rating, Morningglory (morningglory; [5]): 1
Morningglory plant response rating (morningglory; [6]): 1
Cocklebur plant response rating (cocklebur; [7]): 0
Cocklebur plant response rating (cocklebur; [1]): 0
Cocklebur plant response rating (0 to 10 scale) (cocklebur; [2]): 0
Cocklebur plant response rating (cocklebur; [3]): 0
Cocklebur plant response rating (cocklebur; [4]): 0
Cocklebur plant response rating (cocklebur; [8]): 0
Plant response rating, Cocklebur (cocklebur; [5]): 0
Cocklebur plant response rating (cocklebur; [6]): 0
Sugarbeets plant response rating (sugar beet; [7]): 0
Sugarbeets plant response rating (sugar beet; [1]): 0
Sugarbeets plant response rating (0 to 10 scale) (sugar beet; [2]): 0
Sugarbeets plant response rating (sugar beet; [3]): 0
Sugarbeets plant response rating (sugar beet; [4]): 0
Sugarbeets plant response rating (sugar beet; [8]): 0
Plant response rating, Sugarbeets (sugar beet; [5]): 0
Sugarbeets plant response rating (sugar beet; [6]): 0
Corn plant response rating (corn; [7]): 0
Corn plant response rating (corn; [1]): 0
Corn plant response rating (0 to 10 scale) (corn; [2]): 0
Corn plant response rating (corn; [3]): 0
Corn plant response rating (corn; [4]): 0
Corn plant response rating (corn; [8]): 0
Plant response rating, Corn (corn; [5]): 0
Corn plant response rating (corn; [6]): 0
Rice plant response rating (rice; [9]): 0
Plant response rating, Rice (rice; [10]): 0
Rice plant response rating (rice; [11]): 0
Rice plant response rating (rice; [12]): 0
Ducksalad plant response rating (duck salad; [9]): 0
Plant response rating, Ducksalad (duck salad; [10]): 0
Ducksalad plant response rating (duck salad; [11]): 0
Ducksalad plant response rating (duck salad; [12]): 0
Rape plant response rating (rape; [7]): 0
Rape plant response rating (rape; [1]): 0
Rape plant response rating (0 to 10 scale) (rape; [2]): 0
Rape plant response rating (rape; [3]): 0
Rape plant response rating (rape; [4]): 0
Rape plant response rating (rape; [8]): 0
Plant response rating, Rape (rape; [5]): 0
Rape plant response rating (rape; [6]): 0
Redroot pigweed plant response rating (pigweed; [7]): 0
Redroot pigweed plant response rating (pigweed; [1]): 0
Redroot pigweed plant response rating (0 to 10 scale) (pigweed; [2]): 0
Redroot pigweed plant response rating (pigweed; [3]): 0
Redroot pigweed plant response rating (pigweed; [4]): 0
Redroot pigweed plant response rating (pigweed; [8]): 0
Plant response rating, Redroot pigweed (pigweed; [5]): 0
Redroot pigweed plant response rating (pigweed; [6]): 0
Giant foxtail plant response rating (giant foxtail; [7]): 1
Giant foxtail plant response rating (giant foxtail; [1]): 3
Giant foxtail plant response rating (0 to 10 scale) (giant foxtail; [2]): 6
Giant foxtail plant response rating (giant foxtail; [3]): 8
Giant foxtail plant response rating (giant foxtail; [4]): 10
Giant foxtail plant response rating (giant foxtail; [8]): 0
Plant response rating, Giant foxtail (giant foxtail; [5]): 4
Giant foxtail plant response rating (giant foxtail; [6]): 4
Wheat plant response rating (wheat; [1]): 0
Wheat plant response rating (0 to 10 scale) (wheat; [2]): 0
Wheat plant response rating (wheat; [3]): 0
Wheat plant response rating (wheat; [4]): 0
Plant response rating, Wheat (wheat; [5]): 0
Wheat plant response rating (wheat; [6]): 0

Reference: US6737383B1, “Herbicidal oxadiazolidines” (priority 1999, dated 2004)
